These results are taken from ChEMBL document CHEMBL5512634, “Sulfone-based human liver pyruvate kinase inhibitors - Design, synthesis and in vitro bioactivity” (Eur J Med Chem, 2024).

One data set deals with HepG2. As to the kind of experiment: Cytotoxicity against PKM2 knock out human HepG2 cells at 1 to 10 uM measured for 24 to 72 hrs. It counts as toxicity, cell-based. To be noted: hepg2, 10 µM, dose lower 1 µM, time lower 24 hrs, dose upper 10 µM, time upper 72 hrs.
In data set [1] the target is T1, Pyruvate kinase PKLR (Homo sapiens, UniProt P30613). As to the kind of experiment: Inhibition of full length N-terminal His-tagged human PKL (2 to 543 residues) expressed in Escherichia coli at 10 uM by kinase Glo luminescence based plate reader assay relative to control.
Target sequence in this assay (P30613 whole entry, looked up, the tested form may be a part): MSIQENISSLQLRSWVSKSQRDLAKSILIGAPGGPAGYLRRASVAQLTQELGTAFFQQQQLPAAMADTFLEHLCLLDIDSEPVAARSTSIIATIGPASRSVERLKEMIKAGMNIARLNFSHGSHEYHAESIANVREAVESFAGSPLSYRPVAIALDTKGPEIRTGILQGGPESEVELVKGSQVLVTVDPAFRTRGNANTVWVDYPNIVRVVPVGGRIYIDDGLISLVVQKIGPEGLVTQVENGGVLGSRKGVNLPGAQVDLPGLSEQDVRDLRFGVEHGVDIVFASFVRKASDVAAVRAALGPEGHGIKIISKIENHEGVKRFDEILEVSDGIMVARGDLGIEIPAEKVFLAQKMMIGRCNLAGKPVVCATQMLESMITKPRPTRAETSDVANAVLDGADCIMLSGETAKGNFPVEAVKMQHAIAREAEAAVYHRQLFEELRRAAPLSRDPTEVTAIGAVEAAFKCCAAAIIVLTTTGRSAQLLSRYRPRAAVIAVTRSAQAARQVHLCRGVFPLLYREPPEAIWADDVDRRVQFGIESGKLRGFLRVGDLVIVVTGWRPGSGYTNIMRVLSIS
In data set [2] the target is T1, Pyruvate kinase PKLR. Description: Inhibition of full length N-terminal His-tagged human PKL (2 to 543 residues) expressed in Escherichia coli by kinase Glo luminescence based plate reader assay.
Target sequence in this assay (P30613 whole entry, the tested form may be a part): as the sequence (P30613 whole entry, looked up, the tested form may be a part) above
For data set [3], the target named is T1, Pyruvate kinase PKLR. Description: Inhibition of PKR (unknown origin).
Target sequence in this assay (P30613 whole entry, looked up, the tested form may be a part): as above

The source made the active and inactive calls. The rule behind the calls is not given here.

Consider `O=S1(=O)Oc2c(ccc(O)c2O)-c2cc(O)c(O)cc21`, for which, in the data set with HepG2, the Activity entry is “Non-Toxic”.

With `O=S1(=O)Oc2c(ccc(O)c2O)-c2cc(O)ccc21`, the inhibition entry at Pyruvate kinase PKLR [1] was “Active”.

Consider `O=S1(=O)Oc2cc(O)c(O)c(O)c2-c2cc(O)c(O)cc21`, for which the IC50 on Pyruvate kinase PKLR [2] came out at 70 nM; against Pyruvate kinase PKLR [3] it was 180 nM.

By IC50 is commonly meant the midpoint of a concentration-inhibition curve. A low value points to greater potency in that assay.
